Assay results published in publication PMC5423902, “CXCL9-Derived Peptides Differentially Inhibit Neutrophil Migration In Vivo through Interference with Glycosaminoglycan Interactions” (Frontiers in Immunology, 2017).
One block for each molecule: values may come before it. Peptide text beside a SMILES is read from it. * marks the point of attachment. 5TAMRA = CN(C)c1ccc2c(c1)Oc1cc(N(C)C)ccc1C21OC(=O)c2cc(C(=O)*)ccc21

How the values were obtained:
[1] = test system: CXCL8(1-77) binding to heparan sulfate (HS); assay: Competition with CXCL8 for binding to immobilized HS (ELISA-like); design: species or system human; conditions: CXCL8(1-77) 0-300 nM, n ≥ 4, Figure 3B
Description: (§1) The ability of the COOH-terminal peptides of CXCL9 and CXCL4 to compete for GAG binding with the inflammatory chemokines CXCL8 and CXCL1 was evaluated on heparin-binding plates [BD Biosciences or produced by Jason Whittle (School of Engineering/Future Industries Institute, University of South Australia, Australia)] ([42], [47]). In brief, GAGs (heparin, HS, and CS; Iduron; 25 µg/ml) were coated overnight at room temperature. Dilutions of COOH-terminal CXCL9 or CXCL4 peptide combined with recombinant human CXCL8(1-77) or recombinant murine CXCL1(1-72) (Peprotech, Rocky Hill, NJ, USA) were added in duplicate and incubated for 2 h at 37°C. Subsequently, bound CXCL8 or CXCL1 was detected with biotinylated polyclonal rabbit anti-human CXCL8 or biotinylated polyclonal goat anti-mouse CXCL1 (Peprotech) and horse radish peroxidase-labeled streptavidin. Finally, the peroxidase activity was quantified at 450 nm.
(§2) Figure 3 CXCL9(74-93) competes with CXCL8 for binding to heparin, heparan sulfate (HS), and cellular glycosaminoglycans (GAGs). Competition between CXCL8 and COOH-terminal CXCL9 or CXCL4 peptides for binding to immobilized heparin (A) or HS (B) and to Chinese hamster ovary (CHO) cells (C) was performed. […] Bound CXCL8 was detected with biotinylated anti-human CXCL8 antibodies. (C) Binding of NH2-terminally biotinylated CXCL8(1-77) (300 nM) to CHO cells in the presence or absence of an excess CXCL9 peptide was detected by streptavidin-allophycocyanin and flow cytometry. The mean (± SEM) percentage inhibition of binding of CXCL8(1-77) to heparin, HS or cellular GAGs is indicated on the y-axis (n ≥ 4). Statistical comparison of the different competitors with CXCL9(74–103) was performed using the Mann–Whitney U-test (*p < 0.05).

[2] = test system: CXCL8-induced neutrophil migration; assay: CXCL8-induced neutrophil migration to the peritoneal cavity; type: in vivo, mouse (NMRI); conditions: 108 µg peptide i.p.; data not shown
Description: In vivo neutrophil extravasation to the peritoneal or the knee cavity was examined, respectively, by intraperitoneal or intra-articular injection, of endotoxin-free recombinant CXCL8(1-77) (PeproTech) or vehicle (PBS) in female NMRI or C57BL/6 mice, as described previously ([42], [48]). Simultaneously, synthetic CXCL9 peptide was co-injected either intraperitoneally or injected intravenously. After 2 h (peritoneal cavity) or 3 h (knee cavity), mice were sacrificed. The peritoneal cavity was washed with saline enriched with 2% FCS and 20 U/ml heparin and total leukocyte counts were determined. For the preparation of cytospins, 10^5 cells were used and absolute number and percentage of neutrophils in the lavages were determined in duplicate independently by two researchers by differential microscopic counting. The cells present in the tibiofemoral articulation were harvested by washing the cavity with 10 µl of 3% (w/v) bovine serum albumin in PBS and diluted in 90 µl of 3% (w/v) bovine serum albumin in PBS. The number of total leukocytes was determined by counting leukocytes in a Neubauer chamber after staining with Turk’s solution. Differential counts were obtained from cytospin preparations by evaluating the percentage of each leukocyte type on a slide stained with May-Grunwald-Giemsa solution.
Figure 4 The COOH-terminal peptides of CXCL9 inhibit CXCL8-induced neutrophil migration to the peritoneal cavity. CXCL8(1-77) was injected into the peritoneal cavity of NMRI mice (n ≥ 5) simultaneously with an intraperitoneal (A) or intravenous (B,C) injection of CXCL9(74-103) or CXCL9(74–93). The number of neutrophils in the peritoneal cavity, 2 h post injection, were evaluated by differentially counting the leukocyte subtypes on Hemacolor-stained cytospins. The neutrophil counts are shown for every individual mouse, and the horizontal lines denote the median percentage. To detect statistically significant differences, the Mann–Whitney U-test was carried out (*p < 0.05; **p < 0.01; ***p < 0.005).

[3] = test system: CXCL1(1-72) binding to heparan sulfate (HS); assay: Competition with CXCL1 for binding to immobilized HS; design: species or system murine; conditions: n ≥ 3; Figure 6A
Description: as §1
Competition between CXCL1 and COOH-terminal CXCL9 peptides for binding to immobilized heparan sulfate (HS) (A) and chondroitin sulfate (CS) (B) was performed. […] Bound CXCL1 was detected with biotinylated polyclonal goat anti-mouse CXCL1 antibodies. The mean (± SEM) percentage inhibition of CXCL1 binding to GAGs is indicated on the y-axis (n ≥ 3). Statistical comparison of the different competitors with CXCL9(74–103) was performed using the Mann–Whitney U-test.

[4] = test system: CXCL8-induced neutrophil migration; conditions: cited from earlier work
[5] = Plasma level of intravenously injected fluorescent CXCL9(74-103); type: in vivo, mouse; conditions: spectrofluorometric
Text: Intravenously injected fluorescent CXCL9(74-103) was detected in plasma after different time intervals by spectrofluorometric analysis and quantified against murine plasma spiked with known concentrations of the fluorescent peptide.

[6] = test system: CXCL8(1-77) binding to heparin; assay: Competition with CXCL8 for binding to immobilized heparin (ELISA-like); design: species or system human; conditions: heparin-coated plates, n ≥ 4
Description: as §1, §2

[7] = test system: cellular GAGs on CHO cells; conditions: binds dose-dependently to GAGs on CHO cells; cited from earlier work
[8] = test system: HS expression on CHO cells; assay: HS expression on CHO cells after NaClO3 treatment, flow cytometry; type: cell-based, Chinese hamster; conditions: 100 mM NaClO3, 24 h; anti-HS antibody; data not shown
Description: Chinese hamster ovary (CHO) cells were a gift from M. Parmentier (ULB, Brussels, Belgium) and were cultured in Ham’s F-12 medium (with L-glutamine; Lonza, Belgium) supplemented with 10% fetal calf serum (FCS) and 0.8% G418 (Geneticin®; Life Technologies), as described ([44]). To inhibit sulfation of cellular GAGs, CHO cells were cultured in the presence of 100 mM sodium chlorate (NaClO3) for 24 h as previously described ([42]).
Binding of biotinylated CXCL9(74-103) and CXCL9(74-93) to CHO cells was assessed by flow cytometry as recently described ([42]). Briefly, cells were detached with phosphate-buffered saline (PBS) with 0.02% ethylenediaminetetraacetic acid (EDTA) and incubated with NH2-terminally biotinylated peptides. Subsequently, cells were incubated with streptavidin-allophycocyanin (BD Biosciences, San Jose, CA, USA) and analyzed by flow cytometry (FACSCalibur, BD Biosciences). To confirm inhibition of sulfation of cellular GAGs, part of the cells were stained with a mouse monoclonal anti-human HS antibody (Immunosource, Schilde, Belgium) and a secondary phycoerythrin-labeled goat anti-mouse antibody (BD Biosciences). Finally, cells were analyzed by flow cytometry. Analogously, binding of 100 nM biotinylated CXCL8 in the presence or absence of CXCL9(74-103) or CXCL9(74-93) was compared on CHO cells.

inhibition of CXCL8 binding on HS-coated plates [1]: poorly competing
Molecule: 86KKVLKVRKSQRSRQKKTT103 [CXCL9(86-103), COOH-terminal peptide of CXCL9]
inhibition of CXCL8-induced neutrophil migration to peritoneal cavity [2]: did not inhibit CXCL8-induced neutrophil migration
competition for CXCL1 binding to HS [3]: not able to inhibit the interaction between CXCL1 and HS
inhibition of chemotactic activity of CXCL8 in vivo [4]: unable to inhibit chemotactic activity of CXCL8 in vivo

Molecule: CC(C)C[C@H](NC(=O)[C@@H](NC(=O)[C@H](CCCCN)NC(=O)[C@H](CCCCN)NC(=O)[C@H](CCCCN)NC(=O)[C@H](CCC(N)=O)NC(=O)[C@H](Cc1c[nH]cn1)NC(=O)[C@H](CCCCN)NC(=O)[C@H](CCCCN)NC(=O)CNC(=O)[C@H](CC(N)=O)NC(=O)[C@H](CCCCN)NC(=O)[C@H](CCC(N)=O)NC(=O)[C@H](CCCCN)NC(=O)[C@H](CCCCN)NC(=O)[C@H](CCCCN)NC(=O)c1ccc2c(c1)C(=O)OC21c2ccc(N(C)C)cc2Oc2cc(N(C)C)ccc21)C(C)C)C(=O)N[C@@H](CCCCN)C(=O)N[C@H](C(=O)N[C@@H](CCCNC(=N)N)C(=O)N[C@@H](CCCCN)C(=O)N[C@@H](CO)C(=O)N[C@@H](CCC(N)=O)C(=O)N[C@@H](CCCNC(=N)N)C(=O)N[C@@H](CO)C(=O)N[C@@H](CCCNC(=N)N)C(=O)N[C@@H](CCC(N)=O)C(=O)N[C@@H](CCCCN)C(=O)N[C@@H](CCCCN)C(=O)N[C@H](C(=O)N[C@H](C(=O)O)[C@@H](C)O)[C@@H](C)O)C(C)C [TAMRA-CXCL9(74-103)] (5TAMRA-KKKQKNGKKHQKKKVLKVRKSQRSRQKKTT-OH)
fraction of injected amount detected in plasma ([5]; 5 min after i.v. injection, assuming a blood volume of 3 ml): 3%
level at 5 min ([5]; mouse, plasma, iv, 5 min after i.v. injection, read-out: plasma concentration): 2000 ng/mL
level at 1 h ([5]; mouse, plasma, iv, 1 h after i.v. injection, no circulating peptide detected, read-out: plasma concentration): < 240 ng/mL

molar excess over CXCL8 giving 50% reduction of CXCL8 binding to heparin ([6]; CXCL8(1-77) 0-300 nM, 2 h at 37°C, anti-CXCL8 detection, 450 nm, Figure 3A): more than 100 fold molar excess
Molecule: 47NGRKICLDLQAPLYKKIIKKLLES70 [CXCL4(47-70), COOH-terminal peptide of CXCL4, reference compound]
competition with CXCL8 for heparin binding (relative potency) ([6]; Figure 3): less potent competitor of CXCL8 binding than the CXCL9 peptides
affinity for GAGs on CHO cells relative to CXCL9(74-103) [7]: about fivefold lower affinity than CXCL9(74-103)

Molecule: [Na+].[O-][Cl+2]([O-])[O-] [NaClO3, sodium chlorate]
reduction of HS expression on CHO cells [8]: 71.4%
